The values that follow are results of earlier work, collected in US20050272741A1, “Novel methods of treatment for Fontan patients with protein losing enteropathy” (priority 2004, published 2005).

The test system of the series is mesenteric bed. The conditions noted are these: pretreatment with Viagra, high dose Norepinephrine.

As for `CCCc1nn(C)c2c(=O)[nH]c(-c3cc(S(=O)(=O)N4CCN(C)CC4)ccc3OCC)nc12` [Viagra, Sildenafil], the “Mesenteric relaxation / constriction of the mesenteric bed” value was “even high dose Norepinephrine fails to constrict the mesenteric bed”.
